Experimental data published in article PMC6927504, “Screening of House Dust from Chinese Homes for Chemicals with Liver X Receptors Binding Activities and Characterization of Atherosclerotic Activity Using an in Vitro Macrophage Cell Line and ApoE^−/− Mice” (Environmental Health Perspectives, 2019).

Experiments:
ABCA1 = experiment: qRT-PCR of LXR target gene ABCA1 in RAW264.7 macrophages; type: cell-based; details: vehicle-treated cells set to 1, p<0.01
Description: (§1) RAW264.7 cells were obtained from the National Infrastructure of Cell Line Resource of Beijing, China, and the cells used for the experiment were cultured for at least three passages. Dulbecco’s Modified Eagle’s Medium (DMEM)-F12 medium containing 10% fetal bovine serum (FBS) was employed to culture the RAW264.7 cells. RAW264.7 cells were incubated at 37°C with 5% carbon dioxide. The RAW264.7 cells were plated at 2.5×10^5 cells/well (6-well plates), 6.0×10^4 cells/well (24-well plates), and 10^4 cells/well (96-well plates). The RAW264.7 cells were plated and grown overnight; then the medium was removed and fresh DMEM-F12 contained with 0.1% DMSO (control; n=3 ) or TPHP at the concentrations of 1–20,000 nM ( n=3 per group) was added. […] Then the cells were used for the quantitative reverse transcription (qRT)-PCR, cellular cholesterol efflux assay, and foam cell formation experiment.
Total RNA was isolated from RAW264.7 cells and mouse peritoneal macrophages using TRIzol reagent according to the manufacturer’s instructions. Then a Nanovue Plus™ spectrophotometer (GE Healthcare Life Science) was used to analyze the concentration, quality, and purity of the RNA. Total RNA ( 1μg ) was mixed with oligo deoxythymine (dT) ( 1μL ) at 70°C for 5 min and then combined with a mixture containing Moloney murine leukemia virus (MMLV) reverse transcriptase ( 1μL ), deoxy-ribonucleoside triphosphate (dNTP) ( 1.25μL ), Recombinant RNasin® Ribonuclease Inhibitor (Promega) ( 0.65μL ), and MMLV buffer ( 5μL ) at 42°C for 60 min. The SYBR® Green PCR Kit (TOYOBO) was used for RT-PCR analysis. Real-time fluorescence detection was performed using the StepOnePlus™ sequence detection system (Applied Biosystems). […] The following primers were designed and purchased from Sangon Biotech:
• actin: 5′-[…]-3′ and 5′-[…]-3′ ATP-binding cassette transporter A1 (ABCA1): 5′-[…]-3′ and 5′-[…]-3′ • ATP-binding cassette transporter G1 (ABCG1): 5′-[…]-3′ and 5′-[…]-3′.

RAW264.7 macrophages = experiment: Cellular NBD-cholesterol efflux assay in RAW264.7 macrophages; type: cell-based
Description: as §1, with “plates).” for “plates). The RAW264.7 cells were plated and grown overnight; then the medium was removed and fresh DMEM-F12 contained with 0.1% DMSO (control; n=3 ) or TPHP at the concentrations of 1–20,000 nM ( n=3 per group) was added.”
RAW264.7 cells or mouse peritoneal macrophages were plated in 96-well plates at 10^4 cells/well and cultured with DMEM-F12 containing 10% FBS and 1μg/mL 22-[N-(7-nitrobenz-2-oxa-1,3-diazol-4-yl)amino]-23,24-bisnor-5-cholen-3β-Ol (NBD-cholesterol) for 24 h. […] NBD-cholesterol in the medium and cell lysis buffer were measured, respectively, using a Tecan Infinite® M1000Pro Microplate Reader (Tecan Group Ltd.) at 485-nm excitation wavelength and 535-nm emission wavelength. Cholesterol efflux was expressed as a percentage of fluorescence in the medium relative to the total amount of fluorescence.

[1] = system: mouse peritoneal macrophages; experiment: Foam cell formation in peritoneal macrophages isolated from exposed C57BL/6 mice; type: in vivo; details: 200 mg/kg BW for 7 d, p<0.05
Description: RAW264.7 cells or mouse peritoneal macrophages were plated in 24-well plates at 6.0×10^4 cells/well and grown overnight. Then the medium was removed and fresh DMEM-F12 containing 10% FBS, 20μg/mL oxidized low-density lipoprotein (ox-LDL), and 0.1% DMSO (control; n=3 ) or TPHP at the concentration of 1–20,000 nM ( n=3 per group) was added. The cells were washed with PBS, followed by fixing in 4% paraformaldehyde for 30 min and staining with boron-dipyrromethene (BODIPY) 493/503 ( 20μg/mL ) and 4′,6-diamidino-2-phenylindole (DAPI; 100 ng/mL ) for 10 min. Foam cell formation was analyzed by high-content microscopy using ImageXpress® Micro XL (Molecular Devices). From each well, 25 image fields were scanned, and MetaXpress® (Molecular Devices) was used to quantify compartmentalized changes in the fluorescence of each cell.
All experiments related to animals were approved by the institutional animal care and use committee of Peking University and followed the guidelines for animal experiments of the university as well as for experimental animals in China. […] Body weight (BW) was measured every week during the dosing period. […] Considering that this study assessed the effects of short-term exposure to TPHP, whereas humans are exposed to TPHP over a lifelong period, the present study used exposure doses that were higher than that of human exposure from house dust. […]

With `O=P(Oc1ccccc1)(Oc1ccccc1)Oc1ccccc1` [TPHP, triphenyl phosphate] the “ABCA1 gene expression relative to control” value (ABCA1; 5,000 nM) was 0.49±0.06 fold, the “ABCA1 gene expression relative to control” value (ABCA1; 10,000 nM) was 0.38±0.01 fold and the “ABCA1 gene expression relative to control” value (ABCA1; 20,000 nM) was 0.30±0.03 fold. The “NBD-cholesterol efflux mediated by ApoA-I” value (RAW264.7 macrophages; 100–20,000 nM) was “significantly inhibited”, the “NBD-cholesterol efflux mediated by HDL” value (RAW264.7 macrophages; 1,000–20,000 nM) was “significantly inhibited” and the “Foam cell staining in peritoneal macrophages relative to control” value [1] was 2.88±0.95 fold.
